In patent US10729740B2, “Lytic-peptide-Her2/neu (Human Epidermal growth factor Receptor 2) ligand conjugates and methods of use” (Esperance Pharmaceuticals, Inc., priority 2010, dated 2020):
Ends that are not written are not given here.

Key:
[1] = tested on: Her2 receptor positive SKOV-3 cancer cells; assay: In vitro cytotoxicity, MTT assay, 48 h, SKOV-3
Method: (§1) 68) to the antibody at the C-terminus by NRVRRS (SEQ. ID NO. 57) linker). Cytotoxicity was compared to a naked antibody (antibody without a lytic peptide) in Her-2 receptor positive cells (SKBR-3 and SKOV-3, human breast and ovarian cancer cells, respectively) and Her-2 receptor negative breast cancer cells (MDA-MB-231).
(§2) Cells were prepared in 96 well plates using 2,000 cells/well and were allowed to attach for 48 hours. […] All data were processed and analyzed using Graph Pad Prizm 4™ software (Graph Pad Prizm, Inc).

[2] = tested on: Her2 receptor positive SKBR-3 cancer cells; assay: In vitro cytotoxicity, MTT assay, 48 h, SKBR-3
Method: as §1, §2

[3] = tested on: Her2 receptor negative MDA-MB-231 cancer cells; assay: In vitro cytotoxicity, MTT assay, 48 h, MDA-MB-231
Method: as §1, §2

KFAKFAKKFAKFAKKFAK [Phor-18, KFAKFAK KFAKFAK KFAK]
very minimal non-specific cytotoxicity: cytotoxicity to SKOV-3 cells (in words) [1] | cytotoxicity to SKBR-3 cells (in words) [2] | cytotoxicity to MDA-MB-231 cells (in words) [3]
